Assay results from paper PMC10254235, “Design, Synthesis, and Anti-Cervical Cancer and Reversal of Tumor Multidrug Resistance Activity of Novel Nitrogen-Containing Heterocyclic Chalcone Derivatives” (Molecules, 2023).
Read-outs that look alike come from different tables or passages of the source.

Tests used:
[1] = tested on: HeLa cells; assay: MTT antiproliferative assay, HeLa cells; type: cell-based, human; conditions: Homo sapiens, 48 h
Procedure: (§1) HeLa and SiHa cell lines were obtained from the Procell Life Science Technology Co., Ltd. (Wuhan, China); H8 cell line was obtained from the Shanghai HonSun Biological Technology Co., Ltd. (Shanghai, China); HUVEC cell line was obtained from the Saibaikang (Shanghai) Biotechnology Co., Ltd. (Shanghai, China); HeLa/DDP cell line was obtained from the Guangzhou Jenniobio Biotechnology Co., Ltd. (Guangzhou, China). HeLa, SiHa, H8, and HeLa/DDP cells were cultured in DMEM medium (HyClone). The VEGF of 50 ng/mL was used as the promoter of the VEGFR-2 receptor on HUVEC cell membrane surfaces, and their inhibitory effects on VEGFR-2 were determined. All the mediums were supplemented with 10% FBS (HyClone, GE Healthcare, Australia). Cells were maintained at subconfluency at 37 °C in humidified air containing 5% CO2. The cells were monitored daily and maintained at 80% cell density. All compounds tested were dissolved in DMSO and then diluted by the culture medium before the treatment of cultured cells. Identification reports are available for all types of cell lines involved in this study.
(§2) The cytotoxicity of the target compounds were measured in vitro using the MTT assay. Cells grown in the logarithmic phase were counted and seeded in 96-well cell culture plates (5 × 10^3 cells per well) for 24 h to allow attachment of cells to the wall of the plate. […] Next, 20 μL of 5 mg.mL^−1 MTT solution was added to each well and cultured for 4 h. The old solution was discarded, replaced with 150 μL DMSO solution per well, and shaken for 10 min. The OD value was measured under 490 nm, and the inhibition rate was calculated. The nonlinear regression fitting of the cell growth rate was carried out using SPSS 23.0 software, and the IC50 of the compound was calculated. […] There were 6 compound holes in each group, and the experimental results were presented as the average of 3 experiments. A complete medium containing only cells was used as the blank control, whereas a complete medium without cells was the negative control group. Cisplatin and sorafenib were utilized as the positive control group, and the target compound was the experimental intervention group.

[2] = tested on: SiHa cells; assay: MTT antiproliferative assay, SiHa cells; type: cell-based, human; conditions: Homo sapiens, 48 h, mean ± SD
Procedure: as §1, §2

[3] = tested on: H8 cells; assay: MTT cytotoxicity assay, normal cervical epithelial H8 cells; type: cell-based, human; conditions: Homo sapiens, 48 h, mean ± SD
Procedure: as §1, §2

[4] = target: T1, VEGFR-2 (Homo sapiens, UniProt P35968); assay: VEGFR-2 inhibition test (human p-VEGFR-2 ELISA in HeLa cells); type: cell-based; conditions: ± SD, read-out: 48h IC50 VEGFR-2 inhibitory effect
T1 construct: endogenous in cells; host or cells: HeLa cells
T1 sequence (P35968 20-1356): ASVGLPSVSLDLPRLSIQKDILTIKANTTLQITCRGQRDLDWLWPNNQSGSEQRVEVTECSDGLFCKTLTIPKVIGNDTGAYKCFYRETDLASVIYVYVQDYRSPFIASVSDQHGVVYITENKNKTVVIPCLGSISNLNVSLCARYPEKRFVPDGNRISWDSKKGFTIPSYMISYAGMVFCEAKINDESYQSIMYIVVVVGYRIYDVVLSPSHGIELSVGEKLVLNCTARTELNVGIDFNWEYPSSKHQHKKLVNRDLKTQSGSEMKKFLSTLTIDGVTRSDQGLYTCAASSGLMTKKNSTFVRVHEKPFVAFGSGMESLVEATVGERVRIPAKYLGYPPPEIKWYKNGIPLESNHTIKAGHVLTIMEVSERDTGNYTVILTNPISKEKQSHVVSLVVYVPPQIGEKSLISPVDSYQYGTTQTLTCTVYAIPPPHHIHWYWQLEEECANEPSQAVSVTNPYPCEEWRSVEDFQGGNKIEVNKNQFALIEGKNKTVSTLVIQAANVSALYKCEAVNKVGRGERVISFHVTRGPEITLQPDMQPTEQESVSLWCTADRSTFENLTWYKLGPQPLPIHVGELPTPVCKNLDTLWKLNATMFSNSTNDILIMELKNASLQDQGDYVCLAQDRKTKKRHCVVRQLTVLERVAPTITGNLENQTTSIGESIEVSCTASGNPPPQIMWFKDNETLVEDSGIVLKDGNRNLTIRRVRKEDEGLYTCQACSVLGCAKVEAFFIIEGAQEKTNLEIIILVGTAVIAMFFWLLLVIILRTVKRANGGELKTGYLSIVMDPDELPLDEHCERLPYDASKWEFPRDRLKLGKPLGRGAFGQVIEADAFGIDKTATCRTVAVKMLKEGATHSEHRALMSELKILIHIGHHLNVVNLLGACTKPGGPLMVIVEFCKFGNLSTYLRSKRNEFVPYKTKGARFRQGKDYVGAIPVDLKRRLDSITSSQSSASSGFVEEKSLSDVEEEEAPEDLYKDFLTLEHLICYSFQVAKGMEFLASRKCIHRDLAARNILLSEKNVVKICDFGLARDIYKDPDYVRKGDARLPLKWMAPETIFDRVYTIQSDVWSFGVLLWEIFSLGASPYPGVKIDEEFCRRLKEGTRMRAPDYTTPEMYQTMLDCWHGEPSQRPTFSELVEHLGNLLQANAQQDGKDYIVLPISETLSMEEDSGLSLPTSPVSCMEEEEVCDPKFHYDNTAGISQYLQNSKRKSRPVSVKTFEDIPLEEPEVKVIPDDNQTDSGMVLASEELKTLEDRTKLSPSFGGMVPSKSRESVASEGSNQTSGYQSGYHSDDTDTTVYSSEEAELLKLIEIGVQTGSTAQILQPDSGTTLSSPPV
Procedure: Specimens, standards, and HRP-labeled detection antibodies were added sequentially to the pre-covered microtiter wells containing phosphorylated vascular endothelial growth factor receptor 2 (p-VEGFR2) antibodies, warmed, and washed thoroughly. The substrate TMB was added for color development. This substrate is converted to blue using peroxidase catalysis to a final yellow color due to the action of acid. […] Curve fitting was performed using SPSS 23.0 software to calculate IC50.

[5] = tested on: HeLa cells; assay: Transwell invasion assay (Matrigel); type: cell-based, human; conditions: 24 h, control 172
Procedure: The transwell ([…], Corning Incorporated, New York, NY, USA) was precoated using 50 μL Matrigel for 5 h at 37 °C to achieve solidification. […] After 24 h of incubation at 37 °C, the invasion cells were fixed using methanol and stained using 0.1% crystal violet for 30 min, respectively. Then, the chambers were washed using PBS and left to dry. Images were photographed using an inverted fluorescence microscope (Leica, Microsystems CMS GmbH, GER) and counted using Image J software (V1.8.0.112) for three independent fields randomly.

[6] = tested on: p-VEGFR-2; assay: Western blot, VEGFR-2 phosphorylation in HUVEC cells; type: cell-based, human; conditions: 24 h, 6f 2, 4, 6 μM, sorafenib 4 μM, versus blank group, p < 0.05
[7] = tested on: p-VEGFR-2 (Y1175); assay: Western blot, p-VEGFR-2 in HeLa cells; type: cell-based, human; conditions: HeLa, 2, 4 and 6 μM, 24 h
Procedure: (§3) Next, the protein concentrations were determined using a BCA Protein Assay Kit (Solarbio, China). An equal amount of the proteins (12 μg) were separated using 8–12% sodium dodecyl sulfate–polyacrylamide gel electrophoresis (SDS-PAGE) and transferred to nitrocellulose membranes (Amersham Biosciences, Little Chalfont, Buckinghamshire, UK). Then, the membranes were blocked with 5% nonfat dried milk in TBS containing 1% Tween-20 for 2 h at room temperature and were incubated overnight with specific primary antibodies (CST, Boston, MA, USA) at 4 °C. After three washes in TBST, the membranes were incubated with the appropriate HRP-conjugated secondary antibodies at room temperature for 2 h. The blots were developed using enhanced chemiluminescence (Biosharp, Shanghai, China) and were detected using a PE 0723 imager (ProteinSimple, Silicon Valley, CA, USA). Each experiment was performed at least in triplicate and analyzed using Image J software (V1.8.0.112). […]

[8] = tested on: p-PI3K (Tyr458); assay: Western blot, p-PI3K in HeLa cells; type: cell-based, human; conditions: HeLa, 2, 4 and 6 μM, 24 h
Procedure: as §3

[9] = tested on: p-AKT (Ser473); assay: Western blot, p-AKT in HeLa cells; type: cell-based, human; conditions: HeLa, 2, 4 and 6 μM, 24 h
Procedure: as §3

[10] = tested on: P-gp; assay: Western blot, P-gp expression in HeLa/DDP cells; type: cell-based, human; conditions: 0.25, 0.5 and 1 μM, p > 0.05
Procedure: as §3
(§4) To reduce the adverse reactions caused by the fixation of drug resistance reversal agents, the concentration that reduces the proliferation rate of tumor cells by less than 10% was selected. Therefore, the inhibitory activity of compound 6f on HeLa/DDP cells was determined in the concentration ranges of 0.25, 0.5, and 1 μM combined with cisplatin. […]

[11] = tested on: p-VEGFR-2; assay: Western blot, VEGFR-2 phosphorylation in HeLa/DDP cells; type: cell-based, human; conditions: 4 and 6 μM, versus blank group, p < 0.05
Procedure: as §3, §4

COc1cc(O)c(C(=O)/C=C/c2ccc(CN3CCC(C)CC3)cc2)cc1CN1CCC(O)CC1 [6f, (E)-1-(2-hydroxy-5-((4-hydroxypiperidin-1-yl)methyl)-4-methoxyphenyl)-3-(4-((4-methylpiperidin-1-yl)methyl)phenyl)prop-2-en-1-one]
IC50 ([1]; MTT, mean ± SD, read-out: 48h IC50 HeLa): 6.52 ± 0.42 µM
IC50 ([1]; single agent, read-out: 48h IC50 HeLa (Table 4)): 6.52 ± 0.42 µM
IC50 [2]: 7.88 ± 0.52 µM
IC50 [3]: 30.1 ± 2.51 µM
IC50 [4]: 0.75 ± 0.05 µM
number of invading cells ([5]; 2 μM): 91
number of invading cells ([5]; 4 μM): 50
number of invading cells ([5]; 6 μM): 35
phosphorylation of VEGFR-2 in HUVEC cells (Western blot) [6]: significantly inhibited the phosphorylation of VEGFR-2
p-VEGFR-2 (Y1175) in HeLa cells (Western blot) [7]: effective downregulation
p-PI3K (Tyr458) in HeLa cells (Western blot) [8]: effective downregulation
p-AKT (Ser473) in HeLa cells (Western blot) [9]: effective downregulation
P-gp expression in HeLa/DDP cells (Western blot) [10]: did not exhibit a significant variance in P-gp expression
phosphorylation of VEGFR-2 in HeLa/DDP cells (Western blot) [11]: noteworthy ability to impede the phosphorylation of VEGFR-2
